Reference: US10351547B2, “Somatostatin modulators and uses thereof” (priority 2016, dated 2019)

Molecular target: human SSTR2 (Homo sapiens (Human), UniProt P30874)
Assay: Human SSTR2 intracellular cAMP functional assay for agonists (HTRF)
Format: cell-based
Settings: not given
Summary of the method: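 Cells bearing human SSTR2 exposed to compound for 20 minutes at 37 °C; after lysis, cAMP measured by time-resolved fluorescence (HTRF) and converted via a standard curve. EC50 calculated from cAMP versus compound concentration.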

human SSTR2, sequence (P30874 whole entry): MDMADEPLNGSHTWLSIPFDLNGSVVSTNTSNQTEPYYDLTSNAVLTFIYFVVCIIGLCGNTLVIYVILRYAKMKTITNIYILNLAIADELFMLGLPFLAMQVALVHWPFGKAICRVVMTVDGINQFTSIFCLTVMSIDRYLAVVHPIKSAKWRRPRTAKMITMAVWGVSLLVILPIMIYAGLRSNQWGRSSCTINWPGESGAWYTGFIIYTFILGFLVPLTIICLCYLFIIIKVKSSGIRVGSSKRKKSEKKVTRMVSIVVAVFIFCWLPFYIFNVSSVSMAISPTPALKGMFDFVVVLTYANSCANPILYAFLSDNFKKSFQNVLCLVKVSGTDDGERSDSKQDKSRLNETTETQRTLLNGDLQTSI

`Cc1cc(F)cc(-c2cnc3ccc(-c4cc(F)cc(C#N)c4O)cc3c2N2CC(CN3CCCCC3)C2)c1` [2-50, 5-fluoro-3-[3-(3-fluoro-5-methylphenyl)-4-[3-(piperidin-1-ylmethyl)azetidin-1-yl]quinolin-6-yl]-2-hydroxybenzonitrile] and `N#Cc1cc(F)cc(-c2ccc3ncc(-c4cc(F)cc(Cl)c4)c(N4CC(CN)C4)c3c2)c1O` [2-21, 3-{4-[3-(aminomethyl)azetidin-1-yl]-3-(3-chloro-5-fluorophenyl)quinolin-6-yl}-5-fluoro-2-hydroxybenzonitrile] fall in the same range of EC50: 10 to 100 nM for the first, 10 to 100 nM for the second.

`NC1CCN(c2c(-c3cc(Cl)cc(Cl)c3)cnc3ccccc23)CC1` [2-11, 1-[3-(3,5-dichlorophenyl)quinolin-4-yl]piperidin-4-amine] showed an EC50 of 10 to 100 nM.

Same assay, conditions: CHO-K1 cells stably expressing human SSTR2; NKH477-stimulated cAMP; read-out: EC50 (inhibition of cAMP activities via human SST2R)

`Cc1cc(Cl)cc(-c2cnc3ncc(-c4cccc(C#N)c4O)cc3c2N2CCC(N)CC2)c1` [4-4, 3-[5-(4-aminopiperidin-1-yl)-6-(3-chloro-5-methylphenyl)-1,8-naphthyridin-3-yl]-2-hydroxybenzonitrile] and `N#Cc1cccc(-c2ccc3ncc(-c4cc(F)cc(F)c4)c(N4CCC(N)CC4)c3c2)c1O` [2-2, 3-[4-(4-amino-piperidin-1-yl)-3-(3,5-difluoro-phenyl)-quinolin-6-yl]-2-hydroxy-benzonitrile] cannot be ordered by EC50: under 10 nM for the first, under 10 nM for the second.

`Cc1cc(F)cc(-c2cnc3ccc(-c4cc(F)cnc4N)cc3c2N2CCC(N)CC2)c1` [2-178, 3-[4-(4-aminopiperidin-1-yl)-3-(3-fluoro-5-methylphenyl)quinolin-6-yl]-5-fluoropyridin-2-amine] and `CONC(=O)Nc1ncc(F)cc1-c1ccc2ncc(-c3cc(C)cc(F)c3)c(N3CCC(N)CC3)c2c1` [2-183, 1-{3-[4-(4-aminopiperidin-1-yl)-3-(3-fluoro-5-methylphenyl)quinolin-6-yl]-5-fluoropyridin-2-yl}-3-methoxyurea] cannot be ordered by EC50: under 10 nM for the first, under 10 nM for the second.

`Cc1cc(Cl)cc(-c2nnc3ccc(-c4cccc(F)c4O)cc3c2N2CCC(N)CC2)c1` [1-29, 2-[4-(4-aminopiperidin-1-yl)-3-(3-chloro-5-methylphenyl)cinnolin-6-yl]-6-fluorophenol] and `Cc1cc(Cl)cc(-c2nnc3ccc(-c4cc(F)cc(C#N)c4O)cc3c2N2CCC(N)CC2)c1` [1-22, 3-[4-(4-aminopiperidin-1-yl)-3-(3-chloro-5-methylphenyl)cinnolin-6-yl]-5-fluoro-2-hydroxybenzonitrile] cannot be ordered by EC50: under 10 nM for the first, under 10 nM for the second.

`NC1CCN(c2c(-c3cc(F)cc(F)c3)cnc3ccc(-c4ccc5oc(=O)[nH]c5c4)cc23)CC1` [2-142, 5-[4-(4-aminopiperidin-1-yl)-3-(3,5-difluorophenyl)quinolin-6-yl]-2,3-dihydro-1,3-benzoxazol-2-one] and `NC1CCN(c2c(-c3cc(F)cc(F)c3)cnc3ccc(-c4ccnc(C=NO)c4)cc23)CC1` [2-203, 1-[3-(3,5-difluorophenyl)-6-{2-[(hydroxyimino)methyl]pyridin-4-yl}quinolin-4-yl]piperidin-4-amine] cannot be ordered by EC50: under 10 nM for the first, under 10 nM for the second.

`COC(=O)Nc1nn(C)cc1-c1ccc2ncc(-c3cc(C)cc(F)c3)c(N3CCC(N)CC3)c2c1` [2-214, methyl N-{4-[4-(4-aminopiperidin-1-yl)-3-(3-fluoro-5-methylphenyl)quinolin-6-yl]-1-methyl-1H-pyrazol-3-yl}carbamate] and `COCCNc1nn(C)cc1-c1ccc2ncc(-c3cc(C)cc(F)c3)c(N3CCC(N)CC3)c2c1` [2-229, 1-[3-(3-fluoro-5-methylphenyl)-6-{3-[(2-methoxyethyl)amino]-1-methyl-1H-pyrazol-4-yl}quinolin-4-yl]piperidin-4-amine] cannot be ordered by EC50: under 10 nM for the first, under 10 nM for the second.

`Cc1cc(F)cc(-c2cnc3ccc(-c4cncc(F)c4C=NO)cc3c2N2CCC(N)CC2)c1` [2-168, 1-(6-{5-fluoro-4-[(hydroxyimino)methyl]pyridin-3-yl}-3-(3-fluoro-5-methylphenyl)quinolin-4-yl)piperidin-4-amine] and `NC1CCN(c2c(-c3cc(F)cc(C(F)(F)F)c3)cnc3ccc(-c4cncc(F)c4C=NO)cc23)CC1` [2-176, 1-(6-{5-fluoro-4-[(hydroxyimino)methyl]pyridin-3-yl}-3-[3-fluoro-5-(trifluoromethyl)phenyl]quinolin-4-yl)piperidin-4-amine] cannot be ordered by EC50: under 10 nM for the first, under 10 nM for the second.

`CONC(=O)Nc1c(F)cncc1-c1ccc2ncc(-c3cc(C)cc(F)c3)c(N3CCC(N)CC3)c2c1` [2-172, 1-{3-[4-(4-aminopiperidin-1-yl)-3-(3-fluoro-5-methylphenyl)quinolin-6-yl]-5-fluoropyridin-4-yl}-3-methoxyurea] and `CON(C)C(=O)Nc1c(F)cc(F)cc1-c1ccc2ncc(-c3cc(C)cc(F)c3)c(N3CCC(N)CC3)c2c1` [2-198, 1-{2-[4-(4-aminopiperidin-1-yl)-3-(3-fluoro-5-methylphenyl)quinolin-6-yl]-4,6-difluorophenyl}-3-methoxy-3-methylurea] cannot be ordered by EC50: under 10 nM for the first, under 10 nM for the second.

First: NC1CCN(c2c(-c3cc(F)cc(F)c3)cnc3ccc(-c4c(O)c(Br)cc(F)c4F)cc23)CC1 [2-241, 2-[4-(4-aminopiperidin-1-yl)-3-(3,5-difluorophenyl)quinolin-6-yl]-6-bromo-3,4-difluorophenol]
Second: N#Cc1cc(F)c(F)c(-c2ccc3ncc(-c4cc(F)cc(F)c4)c(N4CC[C@H]5NCCO[C@@H]5C4)c3c2)c1O (relative stereo) [2-100, 3-{4-[trans-octahydro-1H-pyrido[3,4-b]morpholin-6-yl]-3-(3,5-difluorophenyl)quinolin-6-yl}-4,5-difluoro-2-hydroxybenzonitrile]
The EC50 of the first is lower: under 10 nM for the first, 10 to 100 nM for the second.

First: Nc1c(-c2ccc3ncc(-c4cc(F)cc(F)c4)c(N4CC[C@H]5NCCO[C@@H]5C4)c3c2)cncc1C1CC1 (relative stereo) [2-267, 3-{4-[trans-octahydro-1H-pyrido[3,4-b]morpholin-6-yl]-3-(3,5-difluorophenyl)quinolin-6-yl}-5-cyclopropylpyridin-4-amine]
Second: CC#Cc1cncc(-c2ccc3ncc(-c4cc(F)cc(F)c4)c(N4CC[C@H]5NCCO[C@@H]5C4)c3c2)c1N (relative stereo) [2-272, 3-{4-[trans-octahydro-1H-pyrido[3,4-b]morpholin-6-yl]-3-(3,5-difluorophenyl)quinolin-6-yl}-5-(prop-1-yn-1-yl)pyridin-4-amine]
The EC50 of the first is higher: 10 to 100 nM for the first, under 10 nM for the second. The second is the more potent here.

`Cc1ccnc(-c2ccc3ncc(-c4cc(F)cc(F)c4)c(N4CCC(N)CC4)c3c2)c1N` [2-250, 2-[4-(4-aminopiperidin-1-yl)-3-(3,5-difluorophenyl)quinolin-6-yl]-4-methylpyridin-3-amine] and `NC1CCN(c2c(-c3cc(F)cc(F)c3)cnc3ccc(-c4cncc(Cl)c4C=NO)cc23)CC1` [2-192, 1-(6-{5-chloro-4-[(hydroxyimino)methyl]pyridin-3-yl}-3-(3,5-difluorophenyl)quinolin-4-yl)piperidin-4-amine] cannot be ordered by EC50: under 10 nM for the first, under 10 nM for the second.

`COC(=O)Nc1ccc(C#N)cc1-c1ccc2ncc(-c3cc(F)cc(F)c3)c(N3CCC(N)CC3)c2c1` [2-185] and `COCOc1c(C#N)cccc1-c1ccc2ncc(-c3cc(F)cc(F)c3)c(N3CC[C@H](N)[C@H](O)C3)c2c1` (relative stereo) [2-58, 3-{4-[cis-4-amino-3-hydroxypiperidin-1-yl]-3-(3,5-difluorophenyl)quinolin-6-yl}-2-(methoxymethoxy)benzonitrile] cannot be ordered by EC50: under 10 nM for the first, under 10 nM for the second.

`Cc1cc(F)cc(-c2cnc3ccc(-c4cc(F)cc(C(N)=O)c4)nc3c2N2CCC(N)CC2)c1` [3-1, 3-[8-(4-aminopiperidin-1-yl)-7-(3-fluoro-5-methylphenyl)-1,5-naphthyridin-2-yl]-5-fluorobenzamide] and `Cc1cc(F)cc(-c2nnc3ccc(-c4cc(F)cc(C(N)=O)c4)cc3c2N2CCC(N)CC2)c1` [1-13, 3-[4-(4-aminopiperidin-1-yl)-3-(3-fluoro-5-methylphenyl)cinnolin-6-yl]-5-fluorobenzamide] cannot be ordered by EC50: under 10 nM for the first, under 10 nM for the second.

`Cc1cc(F)cc(-c2cnc3ccc(-c4cc(F)cc(C#N)c4O)cc3c2N2CC(CNCCCF)C2)c1` [2-28, 5-fluoro-3-[3-(3-fluoro-5-methylphenyl)-4-(3-{[(3-fluoropropyl)amino]methyl}azetidin-1-yl)quinolin-6-yl]-2-hydroxybenzonitrile] and `CON=Cc1cccc(-c2ccc3ncc(-c4cc(C)cc(F)c4)c(N4CCC(N)CC4)c3c2)c1O` [2-115, 2-[4-(4-aminopiperidin-1-yl)-3-(3-fluoro-5-methylphenyl)quinolin-6-yl]-6-[(methoxyimino)methyl]phenol] cannot be ordered by EC50: under 10 nM for the first, under 10 nM for the second.

`NC(=O)c1cc(F)cc(-c2ccc3nnc(-c4cc(Cl)cc(Cl)c4)c(N4CCC(N)CC4)c3c2)c1` [1-30, 3-[4-(4-aminopiperidin-1-yl)-3-(3,5-dichlorophenyl)cinnolin-6-yl]-5-fluorobenzamide] and `NCC1CN(c2c(-c3cc(Cl)cc(Cl)c3)nnc3ccc(-c4cc(F)cc(C(N)=O)c4)cc23)C1` [1-34, 3-{4-[3-(aminomethyl)azetidin-1-yl]-3-(3,5-dichlorophenyl)cinnolin-6-yl}-5-fluorobenzamide] cannot be ordered by EC50: under 10 nM for the first, under 10 nM for the second.

`Cc1cc(C)cc(-c2nnc3cc(Cl)c(-c4cc(F)cc(C(N)=O)c4)cc3c2N2CCC(N)CC2)c1` [1-1, 3-[4-(4-aminopiperidin-1-yl)-7-chloro-3-(3,5-dimethylphenyl)cinnolin-6-yl]-5-fluorobenzamide] and `NC1CCN(c2c(-c3cc(Cl)cc(Cl)c3)nnc3ccc(-c4cc(F)c5[nH]c(=O)[nH]c5c4)cc23)CC1` [1-28, 6-[4-(4-aminopiperidin-1-yl)-3-(3,5-dichlorophenyl)cinnolin-6-yl]-4-fluoro-2,3-dihydro-1H-1,3-benzodiazol-2-one] cannot be ordered by EC50: under 10 nM for the first, under 10 nM for the second.

In the case of `Cn1cc(-c2ccc3ncc(-c4cc(F)cc(F)c4)c(N4CC[C@H]5NCCO[C@@H]5C4)c3c2)c(C=NO)n1` (relative stereo) [2-260, N-[(4-{4-[trans-octahydro-1H-pyrido[3,4-b]morpholin-6-yl]-3-(3,5-difluorophenyl)quinolin-6-yl}-1-methyl-1H-pyrazol-3-yl)methylidene]hydroxylamine], the EC50 is reported as under 10 nM.
